In paper PMC12637173, “Investigation on LASSBio‐1971 and LASSBio‐1974 Cellular Cytotoxic Mechanism and Their Comparative DMPK Profile” (Archiv Der Pharmazie, 2025):
Where two headings read alike, the source gives them in different places. Blank lines part the entries; values can stand above or below the compound they belong to.

What was measured:
PC‐9 (EGFRL858R) [1] = assay: Apoptosis by flow cytometry (Muse Annexin V & Dead Cell Kit); format: cell-based, human; conditions: PC‐9, 72 h
Procedure: (§1) PC‐9 (EGFRL858R) cell line was seeded at 1 × 10^5 cells/well in a 24‐well plate. […] All flow cytometry assays were performed using Guava Muse Cell Analyzer (Cytek Biosciences) following each kit user's guide provided by the manufacturer. Muse Cell Cycle Kit (catalog no. MCH100106) was chosen to evaluate cell cycle arresting. Apoptosis features were evaluated using Muse Annexin V & Dead Cell Kit (catalog no. MCH100105), as well as inactivation of EGFR using Muse EGFR‐RTK Activation Dual Detection Kit (catalog no. MCH200102). Statistical analysis was performed using one‐way ANOVA on data collected in duplicate from at least two independent experiments (n ≥ 2), employing GraphPad Prism software (version 8.0).

PC‐9 (EGFRL858R) [2] = assay: Cell viability by MTT assay, PC-9; conditions: for IC50: read-out: cytotoxic activity, PC-9 (EGFRL858R)
PAMPA‐BBB = format: in vitro ADME; conditions: PAMPA-BBB
Procedure: (§2) The lipid mixture that impregnates the filter has a different constitution for the permeability tests for the BBB (brain lipid from pig extract in n‐dodecane) and the GIT (L‐α soy phosphatidylcholine in n‐dodecane). The optical density values obtained in the reading at each selected wavelength, for each of the compounds, were analyzed in comparison with the values of several controls within a calibration curve (≥ 7 drugs). In the case of the BBB, these values were used to elaborate an equation and determine the permeability coefficient (Pe), while GIT used absorbed fraction (Fa%).

PAMPA‐GIT = format: in vitro ADME; conditions: PAMPA-GIT; for Classification: standard drugs used as control; for Fa exp. / Papp: standard drugs used as control (n = 2); for Papp: read-out: Pe experimental
Procedure: as §2

[3] = PAMPA-GIT, standard drugs; literature value, ref not given; cited from earlier work
PC‐9 (EGFRL858R) [4] = assay: Cell viability by sulforhodamine B (SRB) assay, PC-9; conditions: Homo sapiens, 72 h, read-out: cytotoxic activity CC50, PC‐9 (EGFRL858R)
NCI‐H292 (EGFRwt) [5] = assay: Cell viability by MTT assay, NCI-H292; conditions: Homo sapiens
[6] = test system: NCI‐H1975 (EGFRL858R/T790M); assay: Cell viability by MTT assay, NCI-H1975; conditions: Homo sapiens; for IC50: read-out: cytotoxic activity, NCI-H1975 (EGFRL858R/T790M)
NCI‐H292 (EGFRwt) [7] = assay: Cell viability by sulforhodamine B (SRB) assay, NCI-H292; conditions: Homo sapiens, NCI-H292, 72 h, read-out: cytotoxic activity CC50, NCI‐H292 (EGFRwt)
EGFR in PC‐9 (EGFRL858R) = assay: EGFR activation by flow cytometry (Muse EGFR‐RTK Activation Dual Detection Kit); format: cell-based, human
Procedure: as §1

Structure (SMILES): COc1ccc(/C=C\c2cc(OC)c(OC)c(OC)c2)cc1O [combretastatin A4, reference compound]
phosphatidylserine externalization and cell membrane permeabilization, share of the NSCLC cell population (PC‐9 (EGFRL858R) [1]; LASSBio‐1974 10 µM, CA‐4 0.1 µM): ~60%
CC50 (PC‐9 (EGFRL858R) [2]; read-out: CC50 stated in figure legend, PC‐9, CC50 given as concentration used in flow cytometry, assay and time not stated): 100 nM

Classification (PAMPA‐BBB; standard drugs used as control): CNS +
Papp (PAMPA‐BBB; standard drugs used as control (n = 2), read-out: Pe experimental): 0.56 ×10⁻⁶ cm/s
Structure (SMILES): CCn1cc(C(=O)O)c(=O)c2cc(F)c(N3CCNCC3)nc21 [Enoxacin, reference compound]

Classification (PAMPA‐GIT): Low (low permeability (0%–29%))
Fa exp. (PAMPA‐GIT): 1.37%
Papp (PAMPA‐GIT): 0.67 ×10⁻⁶ cm/s
Structure (SMILES): CO/N=C(\C(=O)N[C@@H]1C(=O)N2C(C(=O)O)=C(CSc3nc(=O)c(=O)[nH]n3C)CS[C@H]12)c1csc(N)n1 [Ceftriaxone]
Fa lit. [3]: 1%
Pe literature [3]: 0.10 10^-6 cm s^-1

Fa exp. (PAMPA‐GIT): 2.26%
Structure (SMILES): CC(C)NCC(O)COc1ccc(CC(N)=O)cc1 (stereo not drawn) [Atenolol]
Fa lit. [3]: 5.2%

Fa exp. (PAMPA‐GIT): 1.70%
Structure (SMILES): Nc1nc2c(ncn2COCCO)c(=O)[nH]1 [Acyclovir]

Classification (PAMPA‐GIT): Medium (medium permeability (30%–69%))
Fa exp. (PAMPA‐GIT): 38.29%
Papp (PAMPA‐GIT): 0.3 ×10⁻⁶ cm/s
Structure (SMILES): CNC(=C[N+](=O)[O-])NCCSCc1ccc(CN(C)C)o1 [Ranitidine]

Structure (SMILES): C=CC(=O)Nc1cc(Nc2nccc(-c3cn(C)c4ccccc34)n2)c(OC)cc1N(C)CCN(C)C [Osimertinib, osimertinib, reference compound]
increase in the population of cells undergoing apoptosis (PC‐9 (EGFRL858R) [1]; at their CC50): approximately 10%
CC50 (PC‐9 (EGFRL858R) [4]): 70 nM
IC50 (NCI‐H292 (EGFRwt) [5]; NCI-H292, 48 h, read-out: cytotoxic activity, NCI-H292 (EGFRw.t.)): 6810 nM
CC50 (NCI‐H292 (EGFRwt) [5]; NCI-H292, 72 h, read-out: cytotoxic activity CC50, NCI‐H292 (EGFRwt)): 6300 nM
IC50 (PC‐9 (EGFRL858R) [2]; Homo sapiens, 24 h): 8320 nM
IC50 (PC‐9 (EGFRL858R) [2]; Homo sapiens, 48 h): 170 nM
CC50 (PC‐9 (EGFRL858R) [2]; Homo sapiens, 72 h, read-out: cytotoxic activity CC50, PC‐9 (EGFRL858R)): 50 nM
CC50 (NCI‐H292 (EGFRwt) [7]): 6860 nM
inhibition of phosphorylation and activation of EGFR (EGFR in PC‐9 (EGFRL858R)): inhibited phosphorylation
